This assay has as its system HeLa cells expressing GFP-LC3. As to the kind of experiment: GFP-LC3 puncta in the presence of specific inhibitors. To be noted: LP-4 10 μM, 4 hours, CC 10 μM, STO-609 25 μM, BM 10 μM. Format: cell-based, human. The procedure: GFP-LC3 puncta formation was quantified as previously described^15. In brief, HeLa cells expressing GFP-LC3 were treated with N-desmethyldauricine (LP-4, 10 μM) in the presence of AMPK inhibitor, compound C (CC, 10 μM), CaMKK-β inhibitor, STO-609 (25 μM) or Calcium chelator, BAPTA/AM (BM, 10 μM) for 4 hours. The cells were then fixed in 4% paraformaldehyde for 20 minutes at room temperature and then rinsed with PBS. Slides were mounted with FluorSave™ mounting media (Calbiochem) and examined by fluorescence microscopy. To quantify for autophagy, the percentage of cells with punctate GFP-LC3 fluorescence was calculated by counting the number of the cells with punctate GFP-LC3 fluorescence in GFP-positive cells. A minimum of 150 cells from 3 randomly selected fields was scored.

As for `c1cc(-c2cnn3cc(-c4ccc(OCCN5CCCCC5)cc4)cnc23)ccn1` [compound C], the “N-desmethyldauricine-induced GFP-LC3 puncta formation in presence of inhibitor” value is “significant reduction”.
Turning to `CC(=O)OCOC(=O)CN(CC(=O)OCOC(C)=O)c1ccccc1OCCOc1ccccc1N(CC(=O)OCOC(C)=O)CC(=O)OCOC(C)=O` [BAPTA/AM], the “N-desmethyldauricine-induced GFP-LC3 puncta formation in presence of inhibitor” value is on record as “significant reduction”.
Under `O=C(O)c1ccc2c3c1cccc3c(=O)n1c3ccccc3nc21` [STO-609] stands “significant reduction”.

The values above are taken from patent publication US20150133492A1, “N-desmethyldauricine, A Novel Autophagic Enhancer for Treatment of Cancers and Neurodegenerative Conditions Thereof” (Macau University of Science and Technology, priority 2013, published 2015).
